Results taken from patent publication US9012439B2, “Use of electrophilic compounds for inducing platelet production or maintaining platelet function” (University of Rochester, priority 2007, dated 2015).
Entries after “also recorded” stand apart in the source; their conditions may differ.

Columns and labels:
Meg-01 cells [1] = assay: DNA content analysis of Meg-01 cells; assay type: cell-based, human; settings: 10 μM
Procedure: Cells were fixed in 95% ethanol, treated with RNAse (Sigma) followed by 20 μg/mL propidium iodide (Sigma) to stain DNA, and analyzed by flow cytometry.

PPARγ = biological target: T1, PPARγ (Homo sapiens, UniProt P37231); assay: PPARγ gene reporter analysis (PPRE-luciferase) in Meg-01 cells; assay type: cell-based; settings: 10 μM, 24 h after ligand treatment
T1 construct: Meg-01 cells were plated at a density of […] cells per well in a E-well plate and transfected; endogenous in cells; host or cells: Meg-01 cells
T1 sequence (P37231 1-505): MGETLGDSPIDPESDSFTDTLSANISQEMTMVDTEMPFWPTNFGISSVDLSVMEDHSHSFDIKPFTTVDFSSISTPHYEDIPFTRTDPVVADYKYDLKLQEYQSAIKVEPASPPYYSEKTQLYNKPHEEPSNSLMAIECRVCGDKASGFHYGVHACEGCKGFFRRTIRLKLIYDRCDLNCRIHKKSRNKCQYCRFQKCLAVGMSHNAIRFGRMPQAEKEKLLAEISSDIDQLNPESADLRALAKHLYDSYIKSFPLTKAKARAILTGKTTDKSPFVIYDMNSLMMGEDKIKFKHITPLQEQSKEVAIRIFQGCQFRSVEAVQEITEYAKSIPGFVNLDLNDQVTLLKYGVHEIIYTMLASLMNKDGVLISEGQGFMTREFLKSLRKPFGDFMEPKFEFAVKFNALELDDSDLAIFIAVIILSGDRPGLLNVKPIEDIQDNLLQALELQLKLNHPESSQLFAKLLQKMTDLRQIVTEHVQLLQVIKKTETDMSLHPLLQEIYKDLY
Procedure: Meg-01 cells were plated at a density of […] cells per well in a […] and transfected, using lipofectamine LTX (Invitrogen), with a PPRE (Peroxisome Proliferator Response Element)-luciferase reporter plasmid containing three copies of the ACO-PPRE (a gift from Dr. B. Seed, Massachusetts General Hospital, Boston, Mass.). […] Transfection efficiency was determined by transfecting the cells with green fluorescent protein (GFP) plasmid and determining the percentage of cells that were GFP+ by flow cytometry. […] Luciferase activity was assessed 24 h after ligand treatment using the Promega Luciferase Assay System, and relative light units (RLU) were determined using a Lumicount Microplate Luminometer (Packard Instrument Co., Meriden, Conn.).

Meg-01 cells [2] = assay: Platelet production from Meg-01 cells (flow cytometry); assay type: cell-based, human
Procedure: Meg-01 and M07e cells were purchased from the American Type Culture Collection (Rockville, Md.) and Dami cells were a generous gift from Dr. Patricia J. Simpson-Haidaris (University of Rochester). All cells were cultured in RPMI-1640 tissue culture medium (Invitrogen) supplemented with 5% fetal bovine serum (FBS; Invitrogen), 10 mM HEPES (N-2-hydroxyethylpiperazine-N′-2-ethanesulfonic acid; Sigma), 2 mM L-glutamine (Invitrogen), 4.5 g/L glucose (Invitrogen), and 50 μg/mL gentamicin (Invitrogen). M07e cells were also supplemented with 100 ng/mL of granulocyte monocyte-colony stimulating factor (GM-CSF, R&D Systems). All treatments were performed in normal growth media. Dimethyl sulfoxide (DMSO) was used as a vehicle (control) in the experiments described below.
Platelets were isolated from megakaryocytes by centrifugation at 150 xg for 10 min. Supernatants underwent sequential centrifugation (500 xg for 10 min and 1000×g for 10 min). The remaining platelet pellet was fixed then permeabilized with a CD61 or CD41 antibody. 7-AAD (BD Pharmingen) was added for 10 min before analyzing the cells by flow cytometry. Platelets were identified using three well-described parameters (Patel et al., “The Biogenesis of Platelets from Megakaryocyte Proplatelets,” J Clin Invest 115:3348-3354 (2005); Breton-Gorius et al., “Expression of Platelet Proteins During the In Vitro and In Vivo Differentiation of Megakaryocytes and Morphological Aspects of Their Maturation,” Semin Hematol 23:43-67 (1986); Ogura et al., “Establishment of a Novel Human Megakaryoblastic Leukemia Cell Line, MEG-01, With Positive Philadelphia Chromosome,” Blood 66:1384-1392 (1985) and Franks et al., “A Fluorescence Microscopy Method for Quantifying Levels of Prostaglandin Endoperoxide H Synthase-1 and CD-41 in MEG-01 Cells,” Biol Proced Online 3:54-63 (2001), each of which is hereby incorporated by reference in its entirety), size (using normal human platelets as a control), presence of CD61 or CD41 and lack of DNA as determined by the absence of 7-AAD staining Ten thousand platelet events were collected and platelets were quantified by rate (platelet events/second) (Chung et al., “Platelet Activation in Acute, Decompensated Congestive Heart Failure,” Thromb Res 120:709-713 (2007), which is hereby incorporated by reference in its entirety.
A 19 by target sequence was selected to knock down PPARγ. PPARγ was cloned downstream of the RNA polymerase III U6 promoter and subcloned into a FG12 lentiviral vector which expresses green fluorescent protein (GFP) under the Ubiquitin C promoter. HEK 293 cells expressing this siRNA PPARγ had reduced PPARγ protein levels. To make the lentivirus, HEK 293 cells were co-transfected with 3 plasmids: the envelope vector (CMV-VSVG), the transfer vector (FG12-shRNAPPAR), and the packaging construct (pCMVΔ89.2 (gag/pol proteins)). Viral supernatants were collected every 8 h for 2 days and concentrated by ultracentrifugation at 50,000×g for 2 h at 4° C. using a Beckman SW 28 rotor. Viral titers were determined by infection of HeLa cells with serial dilutions of the viral stocks. Meg-01 cells were infected at a multiplicity of infection (MOI) of 20. After 48 h, approximately 56% of the PPARγ siRNA cells were transduced as determined by flow cytometry. The GFP positive (+) cells were then sorted by FACS and grown in RPMI with 5% FBS.

With CCCCCC=CC=C1C(=O)C=C[C@@H]1CC=CCCCC(=O)O [15d-PGJ2, 15-deoxy-Δ^12,14 prostaglandin J2] the DNA content (Meg-01 cells [1]; 24 h and 48 h) was “unchanged”, the DNA content (Meg-01 cells [1]; 72 h) was “increased DNA content” and the “PPARγ activation (PPRE-luciferase activity)” value (PPARγ) was “activated PPARγ”. For the same molecule, the “platelet-enhancing effect after PPARγ protein knock-down” value (Meg-01 cells [2]; Meg-01 cells infected with PPARγ siRNA lentivirus, 15d-PGJ2 24 h) was “failed to attenuate the platelet-enhancing effects of 15d-PGJ2”, the platelet production (Meg-01 cells [2]; Meg-01 cells, 10 μM, 24 h) was “increased platelet production; also recorded: enhanced Meg-01 platelet production” and the “platelet production with increasing concentrations” value (Meg-01 cells [2]; Meg-01 cells, increasing concentrations, 24 h) was “dose-dependent increase in platelet production”.
